Test results reported in PMC10644346, “Shotgun Kinetic Target-Guided Synthesis Approach Enables the Discovery of Small-Molecule Inhibitors against Pathogenic Free-Living Amoeba Glucokinases” (ACS Infectious Diseases, 2023).

Tests used:
N. fowleri = system: N. fowleri; parameters: method as in PMID 30783001; settings: media containing the glycolytic inhibitor; cited from earlier work
[1] = molecular target: T1, AcGlck (Acanthamoeba castellanii glucokinase) (Acanthamoeba castellanii, UniProt L8GT25); parameters: method as in PMID 35604214; settings: cited from earlier work
[2] = molecular target: T2, NfGlck (Naegleria fowleri glucokinase) (Naegleria fowleri, UniProt A0A384E136); parameters: method as in PMID 35604214; settings: cited from earlier work; for selectivity over the human variant (HsGlck): NfGlck vs HsGlck; for NfGlck IC50: previously identified NfGlck inhibitors
[3] = molecular target: T3, BmGlck (Balamuthia mandrillaris glucokinase) (Balamuthia mandrillaris, UniProt Z9NIO0WF95); parameters: method as in PMID 35604214; settings: cited from earlier work
[4] = molecular target: T4, HsGlck (human glucokinase) (Homo sapiens, UniProt P35557); assay: Glucokinase assay (G6PDH-coupled reaction, absorbance at 340 nm), HsGlck; format: biochemical; settings: 10 nM enzyme, 15 min preincubation, pH 7.4, triplicate
T4 sequence (P35557 1-465): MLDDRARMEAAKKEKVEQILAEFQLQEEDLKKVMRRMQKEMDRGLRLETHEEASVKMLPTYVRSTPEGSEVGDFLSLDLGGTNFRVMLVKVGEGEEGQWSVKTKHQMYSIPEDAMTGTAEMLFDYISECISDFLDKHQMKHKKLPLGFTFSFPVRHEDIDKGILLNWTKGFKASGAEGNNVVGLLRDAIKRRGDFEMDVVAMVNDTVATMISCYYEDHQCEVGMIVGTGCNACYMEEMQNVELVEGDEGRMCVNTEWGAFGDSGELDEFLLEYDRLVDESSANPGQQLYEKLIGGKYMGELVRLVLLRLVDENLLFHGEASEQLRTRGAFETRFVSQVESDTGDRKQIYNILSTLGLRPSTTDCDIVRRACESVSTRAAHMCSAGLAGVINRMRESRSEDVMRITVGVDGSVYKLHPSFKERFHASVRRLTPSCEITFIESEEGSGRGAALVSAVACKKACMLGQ
Procedure: (§1) Enzyme activities were measured in triplicate using a coupled reaction described previously.[54] In a clear 96-well plate, enzyme (HsGlck, NfGlck, AcGlck, or BmGlck, all at 10 nM) was incubated with potential inhibitors (in DMSO) in their optimized assay buffer for 15 min at room temperature. For HsGlck and NfGlck, the assay buffer contained 50 mM TEA and 3.3 mM MgCl2, pH 7.4. For AcGlck and BmGlck, the assay buffer contained 50 mM Tris-HCl and 3.3 mM MgCl2, pH 8. Substrate buffer (425 μM glucose, 2.5 mM ATP, 1 U/mL G6PDH, and 0.75 mM NADP^+) was added to each well to start the reaction for a total reaction volume of 200 μL. Immediately after addition, absorbance was measured at 340 nm at 15 s intervals for 2 min by using a BioTek Synergy H1 microplate reader (BioTek, Winooski, VT). Dose–response analysis and IC50 values were performed by using Prism 9.0 (GraphPad software, San Diego, CA). As a control, enzyme activity in inhibitor solvent (DMSO) was included in every assay. To solve the mode of inhibition, NfGlck activity was measured with increasing substrate concentrations (0–1.25 mM) of glucose in the presence or absence of different inhibitor concentrations (0–10 μM) in technical triplicates. Data were then analyzed, and statistical analyses were performed by extra sum-of-squares F test to compare two models of inhibition. […] All statistical analyses were performed using Prism 9 software.

[5] = molecular target: T3, BmGlck (Balamuthia mandrillaris glucokinase); assay: Glucokinase assay (G6PDH-coupled reaction, absorbance at 340 nm), BmGlck; format: biochemical; settings: 10 nM enzyme, 15 min preincubation, pH 8, triplicate
Procedure: (§2) The open reading frames of NfGlck, AcGlck, and BmGlck were cloned into pQE30, transformed into M15(pREP) Escherichia coli (Qiagen, Valencia, CA), and expressed as previously described.[48],[54] Briefly, E. coli M15(pREP4) harboring pQE30 constructs were inoculated and grown to an optical density at 600 nm (OD600) of ∼0.6 prior to induction with 500 μM isopropyl β-D-1-thiogalactopyranoside (IPTG). Protein from bacterial lysate was purified by nickel column chromatography (HisTrap FF; GE Healthcare Life Sciences, Pittsburgh, PA) followed by ion-exchange chromatography (HiTrap Q XL; GE Healthcare Life Sciences, Pittsburgh, PA). Protein was typically stored in 25 mM HEPES–Na (pH 7.4), 150 mM NaCl, and 50% glycerol after protein concentrations were determined by using a Bradford assay with bovine serum albumin (BSA) as a standard.
as §1

[6] = molecular target: T2, NfGlck (Naegleria fowleri glucokinase); assay: Glucokinase assay (G6PDH-coupled reaction, absorbance at 340 nm), NfGlck; format: biochemical; settings: for IC50: 10 nM enzyme, 15 min preincubation, pH 7.4, triplicate
Procedure: as §2, §1

[7] = molecular target: T1, AcGlck (Acanthamoeba castellanii glucokinase); assay: Glucokinase assay (G6PDH-coupled reaction, absorbance at 340 nm), AcGlck; format: biochemical; settings: 10 nM enzyme, 15 min preincubation, pH 8, triplicate
Procedure: as §2, §1

T2 sequence (A0A384E136 entry or part of it): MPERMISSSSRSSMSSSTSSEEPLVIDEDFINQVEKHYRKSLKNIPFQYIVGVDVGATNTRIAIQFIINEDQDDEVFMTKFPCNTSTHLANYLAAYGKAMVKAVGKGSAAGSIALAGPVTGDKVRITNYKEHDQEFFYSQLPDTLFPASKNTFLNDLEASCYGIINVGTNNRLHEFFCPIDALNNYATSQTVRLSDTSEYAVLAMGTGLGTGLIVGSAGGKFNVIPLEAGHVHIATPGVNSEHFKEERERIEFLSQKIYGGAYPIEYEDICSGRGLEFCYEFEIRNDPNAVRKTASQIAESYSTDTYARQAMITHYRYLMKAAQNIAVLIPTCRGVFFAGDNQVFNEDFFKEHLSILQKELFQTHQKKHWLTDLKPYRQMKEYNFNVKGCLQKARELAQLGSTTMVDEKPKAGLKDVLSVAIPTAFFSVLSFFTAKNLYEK
T1 sequence (L8GT25 entry or part of it): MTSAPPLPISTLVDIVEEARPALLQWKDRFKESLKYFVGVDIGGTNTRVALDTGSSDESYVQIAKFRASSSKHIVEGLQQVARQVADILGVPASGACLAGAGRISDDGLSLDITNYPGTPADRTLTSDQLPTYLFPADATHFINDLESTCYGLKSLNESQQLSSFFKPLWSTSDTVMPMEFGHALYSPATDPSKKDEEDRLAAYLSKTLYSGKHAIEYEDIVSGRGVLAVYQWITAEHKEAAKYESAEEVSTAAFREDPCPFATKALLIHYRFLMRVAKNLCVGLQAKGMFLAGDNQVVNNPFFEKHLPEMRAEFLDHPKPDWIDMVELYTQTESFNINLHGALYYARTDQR

Row | SMILES | effect on N. fowleri cellular growth (N. fowleri) | activity against AcGlck [1] | selectivity over the human variant (HsGlck) [2] | NfGlck IC50 [2] | activity against BmGlck [3] | IC50 [4] | IC50 [5] | IC50 [6] | IC50 [7] | selectivity for NfGlck over HsGlck ([6]; NfGlck vs HsGlck IC50)
1 | O=C(O)C(=O)CBr [3-bromopyruvate] | decrease in cellular growth |  |  |  |  |  |  |  |  | 
2 | N=C(N)Nc1ccc(-c2ccc(-c3ccc(N=C(N)N)c(Cl)c3)o2)cc1Cl [MMV688271] |  | not active | lacked significant selectivity | submicromolar | not active |  |  |  |  | 
3 | O=c1c2ccccc2[se]n1-c1ccccc1 [SID856002, ebselen] |  |  | lacked significant selectivity | submicromolar |  |  |  |  |  | 
4 | COc1cc(OC)cc(C(=O)NS(=O)(=O)c2ccc(CN3CCN(c4ccccc4)CC3)cc2)c1 [SZ1TA5] |  |  |  |  |  | > 10 µM | > 10 µM | > 10 µM | 11.6 ± 9.2 µM | 
5 | O=C(NS(=O)(=O)c1ccc(-c2ccc(C(F)(F)F)cc2)cc1)c1ccc2oc(-c3ccccc3)cc2c1 [SZ16TA41] |  |  |  |  |  | > 10 µM | 3 ± 0.54 µM | > 10 µM | > 10 µM | 
6 | Cn1cc(C(=O)NS(=O)(=O)CCN(CSCc2ccccc2)Cc2ccc3c(c2)OCO3)c2cc(-c3ccc(S(C)(=O)=O)cc3)ccc21 [SZ28TA26] |  |  |  |  |  | > 10 µM | 4.77 ± 1 µM | > 10 µM | 4.35 ± 0.31 µM | 
7 | O=C(NS(=O)(=O)CCN(CSCc1ccccc1)Cc1ccc2c(c1)OCO2)c1ccc2c(ccn2Cc2ccc(C(F)(F)F)cc2C(F)(F)F)c1 [SZ28TA30] |  |  |  |  |  | > 10 µM | 1.68 ± 0.05 µM | > 10 µM | > 10 µM | 
8 | O=C(NS(=O)(=O)CCN(CSCc1ccccc1)Cc1ccc2c(c1)OCO2)c1ccc2oc(-c3ccccc3)cc2c1 [SZ28TA41] |  |  |  |  |  | > 10 µM | 7.22 ± 0.28 µM | > 10 µM | 3.09 ± 0.66 µM | 
9 | O=C(NS(=O)(=O)c1ccc(-c2ccc3c(c2)OCCO3)cc1)c1ccc2c(ccn2Cc2ccc(C(F)(F)F)cc2C(F)(F)F)c1 [SZ33TA30] |  |  |  |  |  | > 10 µM | 1.48 ± 0.13 µM | > 10 µM | 4.4 ± 0.4 µM | 
10 | Cn1cc(C(=O)c2cccs2)c2cc(C(=O)NS(=O)(=O)c3ccc(-c4ccc5c(c4)OCCO5)cc3)ccc21 [SZ33TA45] |  |  |  |  |  | 10.6 ± 0.45 µM | > 10 µM | 10.9 ± 2 µM | > 10 µM | 
11 | CCOc1ccc(-c2ccc3c(c2)c(C(=O)NS(=O)(=O)c2ccc(-c4ccc(Oc5ccccc5)cc4)cc2)cn3C)cc1F [SZ35TA23] |  |  |  |  |  | > 10 µM | > 10 µM | > 10 µM | 6.9 µM | 
12 | O=C(NS(=O)(=O)c1ccc(-c2ccc(Oc3ccccc3)cc2)cc1)c1ccc2c(ccn2Cc2ccc(C(F)(F)F)cc2C(F)(F)F)c1 [SZ35TA30] |  |  |  |  |  | 8.5 ± 0.37 µM | 0.33 ± 0.05 µM | 1.9 ± 1.1 µM | 0.21 ± 0.04 µM | slight selectivity
13 | O=C(NS(=O)(=O)c1ccc(-c2ccc(Oc3ccccc3)cc2)cc1)c1ccc2oc(-c3ccccc3)cc2c1 [SZ35TA41] |  |  |  |  |  | > 10 µM | 1.19 ± 0.29 µM | > 10 µM | 1.6 ± 0.1 µM | 
14 | Cn1cc(C(=O)c2cccs2)c2cc(C(=O)NS(=O)(=O)c3ccc(-c4ccc(Oc5ccccc5)cc4)cc3)ccc21 [SZ35TA45] |  |  |  |  |  | > 10 µM | 1.92 ± 0.13 µM | > 10 µM | 3.3 ± 1.3 µM | 
15 | COc1ccccc1-c1ccc(C(=O)NS(=O)(=O)c2ccc(-c3cc4ccccc4s3)cc2)cc1 [SZ37TA21] |  |  |  |  |  | > 10 µM | 4.83 ± 0.76 µM | > 10 µM | 5.1 ± 0.5 µM | 
